“Also recorded” adds a separate entry of the source.
How the values were obtained:
[1] = test system: NCI-H716 cells; experiment: cAMP determination (cAMP-Glo) in differentiated NCI-H716 cells; type: cell-based, human; details: 10 µM, 30 min, compared to 10 µM LCA
Experimental: Differentiated NCI-H716 cells were serum-starved, washed in PBS, and the cell culture medium was changed to Hanks' Balanced Salt solution (HBSS) supplemented with 0.2% (w/v) BSA and 500 µM 3-isobutyl-1-methylxanthine and incubated for 45 min at 37°C. Cells were stimulated with tested compounds or forskolin for 30 min, and the amount of cAMP generated was measured using the cAMP-Glo™ Assay (V1501, Promega, […], United States). The changes in cAMP levels (ΔcAMP) are presented as cAMP levels in treated samples after subtraction of the cAMP levels in the nontreated (NT) samples.
FIGURE 8 Effects of 7-alkylated derivatives of CDCA and 7-ELCA on the membrane receptor GPBAR1. […] . (B) CRE-luc activation depends on the presence of GPBAR1. (C) Effects of LCA and 7-ELCA (both at 10 µM) on intracellular generation of cAMP in differentiated NCI-H716 cells after 30 min treatment. The increase in cAMP level (ΔcAMP) is presented as the difference between cAMP concertation in the treated sample after subtraction of the cAMP in the nontreated control sample. (D) Concentration-response curves for activation of GPBAR1 by LCA and 7-ELCA. EC50 values were calculated using nonlinear fitting of concentration-response curves. […] (G) 7-ELCA (10 µM) increases GLP-1 secretion in siRNA control but not in siRNA Gpbar1 transfected GLUTag cells after 1 h treatment. […]

[2] = test system: NCI-H716 cells; experiment: GLP-1 secretion (ELISA) in differentiated NCI-H716 cells; type: cell-based, human; details: 10 µM, 2 h, listed as 7-ELCA
[3] = test system: GPBAR1 mRNA, NCI-H716 cells; experiment: GPBAR1 mRNA expression in differentiated NCI-H716 cells; type: cell-based, human; details: 10 µM, 2 h
Experimental: FIGURE 8 Effects of 7-alkylated derivatives of CDCA and 7-ELCA on the membrane receptor GPBAR1. […]. (B) CRE-luc activation depends on the presence of GPBAR1. (C) Effects of LCA and 7-ELCA (both at 10 µM) on intracellular generation of cAMP in differentiated NCI-H716 cells after 30 min treatment. The increase in cAMP level (ΔcAMP) is presented as the difference between cAMP concertation in the treated sample after subtraction of the cAMP in the nontreated control sample. (D) Concentration-response curves for activation of GPBAR1 by LCA and 7-ELCA. EC50 values were calculated using nonlinear fitting of concentration-response curves. […] (G) 7-ELCA (10 µM) increases GLP-1 secretion in siRNA control but not in siRNA Gpbar1 transfected GLUTag cells after 1 h treatment. GLP-1 was normalized to protein concentration and GPBAR1 mRNA expression to GAPDH mRNA. Data are presented as a fold to control nontreated (NT) samples. Forskolin (FSK, 10 µM) was used as a GPBAR1-independent activator of cAMP production.

[4] = test system: GLUTag cells; experiment: GLP-1 secretion in siRNA control or Gpbar1 siRNA transfected GLUTag cells; type: cell-based, murine; details: 10 µM, 1 h
Experimental: GLUTag cells were transfected with non-targeting scrambled siRNA (siRNA control) or with the combination of siRNAs specific for Gpbar1 (Silencer® Select Pre-designed siRNA, LOT# ASO2HKN6 and ASO2HKN7, Life Technologies, Carlsbad, CA, United States) twice at 24 and 72 h after seeding using Lipofectamine RNAiMAX reagent (Life Technologies, Carlsbad, CA, United States). GLUTag cells were then treated with tested molecules at the day 4 post-seeding.
FIGURE 8 Effects of 7-alkylated derivatives of CDCA and 7-ELCA on the membrane receptor GPBAR1. […] . (B) CRE-luc activation depends on the presence of GPBAR1. (C) Effects of LCA and 7-ELCA (both at 10 µM) on intracellular generation of cAMP in differentiated NCI-H716 cells after 30 min treatment. The increase in cAMP level (ΔcAMP) is presented as the difference between cAMP concertation in the treated sample after subtraction of the cAMP in the nontreated control sample. (D) Concentration-response curves for activation of GPBAR1 by LCA and 7-ELCA. EC50 values were calculated using nonlinear fitting of concentration-response curves. […] (G) 7-ELCA (10 µM) increases GLP-1 secretion in siRNA control but not in siRNA Gpbar1 transfected GLUTag cells after 1 h treatment. GLP-1 was normalized to protein concentration and GPBAR1 mRNA expression to GAPDH mRNA. Data are presented as a fold to control nontreated (NT) samples. […]

[5] = biological target: T1, GPBAR1 Ser270Gly (Homo sapiens, UniProt Q8TDU6, S270G); experiment: CRE-luc reporter assay with mutated GPBAR1 variant in HepG2 cells; type: cell-based
T1 construct: expressed in transfected cells; host or cells: HepG2

[6] = test system: GLUTag cells; experiment: MTS viability assay; type: cell-based, murine; details: Mus musculus, 24 h, read-out: IC50, cell viability
Experimental: In addition, we examined the potential effect of 7-ethylidene-lithocholic acid (7-ELCA) on viability in murine colonic GLUTag cells. IC50 for 7-ELCA in the cell line remains above 200 µM.
Figure S1. Cell viability in GluTag cells was determined using the Cell Titer 96 Aqueous One Solution Cell Proliferation Assay (Promega) after treatment with 7-ethylidene-lithocholic acid (7-ELCA) for 24 h. Vehicle (0.1% DMSO) and background (10% SDS; v/v, toxic control) controls of cell viability were set to be 100% and 0%, respectively. IC50 is greater than 200 µM.

[7] = biological target: vitamin D receptor (VDR) (Homo sapiens, UniProt P11473); experiment: Nuclear receptor specificity luciferase reporter assay in HepG2 cells
Experimental: (§1) For transient transfection, HepG2 cells were seeded at the density of 40,000 cells/cm^2. […] The next day, cells were challenged with tested ligands in indicated concentrations for 5 h. […] All the other transient transfection reporter gene assays were performed with Lipofectamine® 3000 (ThermoFisher Scientific). Briefly, cells were transfected with 150 ng/well luciferase reporter gene constructs (p(DR3)3-luc, SHP-luc, p3A4-luc, pTAT-(GRE)2-TK-luc, p2B6-luc, pGL4.35[luc2P⁄9XGAL4UAS⁄Hygro]), FXRE-luc together with 100 ng/well of the corresponding full-length fragment nuclear receptor expression vectors (pSG5-hVDR, pSG5-hFXR, pSG5-hRXRα, pSG5-hPXR, CAR3 variant) or the ligand binding domains of human, pCMX-GAL4-hFXR, pCMX-GA4L-LXRα, pCMX-GA4L-LXRα, pCMX-GA4L-TRα, pCMX-GA4L-PPARα, pCMX-GAL4-PPARγ, pCMX-GAL4-PPARδ) and 30 ng/well of pRL-TK Renilla luciferase vector 24 h prior to the treatment. […] The firefly luciferase activity was measured using the Dual Luciferase® Reporter Assay System (Promega) and normalized to Renilla luciferase activity. Experiments in an agonistic mode were performed with OCA, CDCA or tested compounds (all compounds at 10 μM). […] EC50 and IC50 were calculated using GraphPad PRISM ver. […]
(§2) Data were normalized to Renilla luciferase activity and are expressed as fold activation relative to control (nontreated, NT) cells. […]

[8] = biological target: pregnane X receptor (PXR) (Homo sapiens, UniProt O75469); experiment: as above
Experimental: as §1, §2

[9] = biological target: constitutive androstane receptor (CAR) (Homo sapiens, UniProt Q14994, DEL233-236); experiment: as above
Experimental: as §1, §2

[10] = biological target: PPARα (Homo sapiens, UniProt Q07869); experiment: as above
Experimental: as §1, §2

[11] = biological target: PPARγ (Homo sapiens, UniProt P37231); experiment: as above
Experimental: as §1, §2

[12] = biological target: LXRα (Homo sapiens, UniProt Q13133); experiment: as above
Experimental: as §1, §2

[13] = biological target: LXRβ (Homo sapiens, UniProt P55055); experiment: as above
Chain of LXRβ (P55055 222-460 limits assumed): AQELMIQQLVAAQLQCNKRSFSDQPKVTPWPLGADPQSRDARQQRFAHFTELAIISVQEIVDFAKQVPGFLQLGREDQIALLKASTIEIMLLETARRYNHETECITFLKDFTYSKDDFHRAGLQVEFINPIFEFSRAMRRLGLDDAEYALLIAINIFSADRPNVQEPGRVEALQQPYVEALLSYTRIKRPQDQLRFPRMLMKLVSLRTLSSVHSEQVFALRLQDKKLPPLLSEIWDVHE
Experimental: as §1, §2

Chain of PPARγ (P37231 238-503 limits assumed): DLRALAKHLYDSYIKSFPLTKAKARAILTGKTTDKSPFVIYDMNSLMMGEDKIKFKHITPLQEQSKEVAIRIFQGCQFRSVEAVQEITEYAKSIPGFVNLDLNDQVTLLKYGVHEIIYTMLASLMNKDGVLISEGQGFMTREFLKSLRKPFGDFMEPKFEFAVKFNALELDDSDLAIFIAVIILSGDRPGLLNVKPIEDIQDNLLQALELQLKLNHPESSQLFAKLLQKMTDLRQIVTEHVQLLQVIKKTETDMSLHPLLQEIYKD
Chain of vitamin D receptor (VDR) (P11473 whole entry): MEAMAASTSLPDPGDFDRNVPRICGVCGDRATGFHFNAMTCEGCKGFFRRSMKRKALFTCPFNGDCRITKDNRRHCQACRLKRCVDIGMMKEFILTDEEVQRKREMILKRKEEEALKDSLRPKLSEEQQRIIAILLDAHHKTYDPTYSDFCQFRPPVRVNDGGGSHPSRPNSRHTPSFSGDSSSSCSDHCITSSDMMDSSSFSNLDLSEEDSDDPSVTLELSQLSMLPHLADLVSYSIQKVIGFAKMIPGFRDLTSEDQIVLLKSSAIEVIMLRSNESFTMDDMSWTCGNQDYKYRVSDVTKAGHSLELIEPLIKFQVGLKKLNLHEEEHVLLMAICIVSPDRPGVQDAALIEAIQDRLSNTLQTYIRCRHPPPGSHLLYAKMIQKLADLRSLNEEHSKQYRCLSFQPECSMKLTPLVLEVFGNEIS
Chain of pregnane X receptor (PXR) (O75469 whole entry): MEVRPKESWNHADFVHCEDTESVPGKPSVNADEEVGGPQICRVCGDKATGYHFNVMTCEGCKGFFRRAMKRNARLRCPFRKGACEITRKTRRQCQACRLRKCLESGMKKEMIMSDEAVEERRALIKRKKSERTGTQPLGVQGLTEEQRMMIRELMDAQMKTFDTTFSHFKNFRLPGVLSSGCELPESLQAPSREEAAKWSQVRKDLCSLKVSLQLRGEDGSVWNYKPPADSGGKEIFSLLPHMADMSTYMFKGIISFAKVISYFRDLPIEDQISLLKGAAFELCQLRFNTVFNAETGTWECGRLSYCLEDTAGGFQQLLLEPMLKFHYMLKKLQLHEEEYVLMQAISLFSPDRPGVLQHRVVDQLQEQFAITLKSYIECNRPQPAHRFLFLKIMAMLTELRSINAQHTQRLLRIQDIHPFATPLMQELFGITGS
Chain of PPARα (Q07869 239-466 limits assumed): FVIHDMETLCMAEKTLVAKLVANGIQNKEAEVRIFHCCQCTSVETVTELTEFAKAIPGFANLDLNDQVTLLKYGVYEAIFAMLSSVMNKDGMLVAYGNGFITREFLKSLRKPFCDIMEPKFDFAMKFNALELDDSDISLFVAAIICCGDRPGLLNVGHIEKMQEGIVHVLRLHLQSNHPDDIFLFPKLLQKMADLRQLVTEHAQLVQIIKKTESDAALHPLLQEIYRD
Chain of constitutive androstane receptor (CAR) (Q14994 with tags, fused parts or gaps isoform Q14994-8 DEL233-236): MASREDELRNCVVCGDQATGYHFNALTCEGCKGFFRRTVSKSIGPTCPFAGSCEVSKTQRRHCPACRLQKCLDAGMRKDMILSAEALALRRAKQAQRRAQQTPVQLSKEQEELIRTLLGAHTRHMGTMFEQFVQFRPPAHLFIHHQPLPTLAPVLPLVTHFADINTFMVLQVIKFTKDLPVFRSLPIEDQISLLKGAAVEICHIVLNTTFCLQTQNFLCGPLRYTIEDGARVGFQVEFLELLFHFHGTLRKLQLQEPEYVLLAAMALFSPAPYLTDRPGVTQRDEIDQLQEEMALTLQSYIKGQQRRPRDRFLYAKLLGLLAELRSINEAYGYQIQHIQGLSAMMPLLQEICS
Chain of constitutive androstane receptor (CAR) (P19793 whole entry partner): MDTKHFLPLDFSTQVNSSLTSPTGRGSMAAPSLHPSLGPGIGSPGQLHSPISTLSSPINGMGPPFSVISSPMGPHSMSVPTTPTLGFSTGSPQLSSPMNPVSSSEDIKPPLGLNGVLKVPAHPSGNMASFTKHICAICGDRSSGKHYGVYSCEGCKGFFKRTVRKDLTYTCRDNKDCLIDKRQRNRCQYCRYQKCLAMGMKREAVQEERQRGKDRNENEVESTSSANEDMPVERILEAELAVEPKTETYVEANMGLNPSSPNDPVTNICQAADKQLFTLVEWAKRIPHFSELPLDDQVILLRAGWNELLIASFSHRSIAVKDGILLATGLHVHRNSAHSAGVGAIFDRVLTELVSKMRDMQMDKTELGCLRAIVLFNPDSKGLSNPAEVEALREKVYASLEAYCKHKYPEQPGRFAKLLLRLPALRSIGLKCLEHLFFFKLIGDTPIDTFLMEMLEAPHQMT
Chain of LXRα (Q13133 209-447 limits assumed): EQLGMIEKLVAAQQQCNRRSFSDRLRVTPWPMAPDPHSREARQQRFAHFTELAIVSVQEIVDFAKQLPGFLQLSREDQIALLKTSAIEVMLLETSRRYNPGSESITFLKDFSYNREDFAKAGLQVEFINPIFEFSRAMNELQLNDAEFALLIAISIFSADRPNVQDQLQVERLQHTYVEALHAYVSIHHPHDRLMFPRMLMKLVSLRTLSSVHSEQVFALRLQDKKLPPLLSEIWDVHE
T1 sequence (Q8TDU6 whole entry S270G): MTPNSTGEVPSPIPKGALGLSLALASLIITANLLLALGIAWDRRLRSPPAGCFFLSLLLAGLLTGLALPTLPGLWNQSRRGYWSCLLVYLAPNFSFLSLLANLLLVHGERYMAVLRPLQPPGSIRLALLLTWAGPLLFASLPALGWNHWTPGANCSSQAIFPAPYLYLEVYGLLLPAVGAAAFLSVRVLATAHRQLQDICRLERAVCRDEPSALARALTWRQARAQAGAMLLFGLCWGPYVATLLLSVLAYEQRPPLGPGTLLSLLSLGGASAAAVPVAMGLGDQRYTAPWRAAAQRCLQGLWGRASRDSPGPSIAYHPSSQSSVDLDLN

In the case of `C/C=C1\C[C@@H]2C[C@H](O)CC[C@]2(C)[C@H]2CC[C@]3(C)[C@@H]([C@H](C)CCC(=O)O)CC[C@H]3[C@H]12` [2a, (E)-3α-Hydroxy-7-ethylidene-5β-cholan-24-oic acid], the “intracellular generation of cAMP” value [1] is reported as “more significant production of cAMP”, the GLP-1 secretion [2] is reported as “significant increase of GLP-1 secretion; also recorded: significantly stronger compared to LCA” and the “GPBAR1 mRNA expression” value [3] is reported as “increase GPBAR1 mRNA expression”. The GLP-1 secretion ([4]; Gpbar1 siRNA transfected GLUTag cells) was “did not lead to the significantly increased GLP-1 production”, the GLP-1 secretion ([4]; siRNA control GLUTag cells) was “significant increase of the GLP-1 secretion” and the “CRE-luc activation via GPBAR1 Ser270Gly” value [5] was “partially preserved”. The IC50 [6] was over 200 µM, the “antagonism of VDR activation by model ligand” value ([7]; 10 µM, with 1α,25(OH)2vitaminD3 10 nM) was “did not antagonize” and the “activation of VDR” value ([7]; agonistic assay, 24 h) was “did not activate”. The “antagonism of PXR activation by model ligand” value ([8]; 10 µM, with rifampicin 1 µM) was “did not antagonize”, the “activation of PXR” value ([8]; agonistic assay, 24 h) was “did not activate” and the “antagonism of CAR activation by model ligand” value ([9]; 10 µM, with CITCO 1 µM) was “did not antagonize”. For the same molecule, the “activation of CAR” value ([9]; agonistic assay, 24 h) was “did not activate”, the “antagonism of PPARα activation by model ligand” value ([10]; 10 µM, with fenofibrate 1 µM) was “did not antagonize” and the “activation of PPARα” value ([10]; agonistic assay, 24 h) was “did not activate”. For the same molecule, the “antagonism of PPARγ activation by model ligand” value ([11]; 10 µM, with rosiglitazone 1 µM) was “did not antagonize”, the “activation of PPARγ” value ([11]; agonistic assay, 24 h) was “did not activate” and the “antagonism of LXRα activation by model ligand” value ([12]; 10 µM, with GW3965 1 µM) was “did not antagonize”. The “activation of LXRα” value ([12]; agonistic assay, 24 h) was “did not activate”, the “antagonism of LXRβ activation by model ligand” value ([13]; 10 µM, with GW3965 1 µM) was “did not antagonize” and the “activation of LXRβ” value ([13]; agonistic assay, 24 h) was “did not activate”.

— PMC8414367, “(E)-7-Ethylidene-lithocholic Acid (7-ELCA) Is a Potent Dual Farnesoid X Receptor (FXR) Antagonist and GPBAR1 Agonist Inhibiting FXR-Induced Gene Expression in Hepatocytes and Stimulating Glucagon-like Peptide-1 Secretion From Enteroendocrine Cells” (Frontiers in Pharmacology, 2021)
